{"source": "patent US20130040882A1", "about": "“USE OF FIBROBLAST GROWTH FACTOR FRAGMENTS” (NOVARTIS AG, priority 2003, published 2013)", "key": {"[1]": {"experiment": "Salmon calcitonin/PTS893 monkey study: haematology;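 further: haematology parameters were measured in blood collected from a peripheral vein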", "type": "in vivo, cynomolgus monkeys (Macaca fascicularis)", "description": "Animals were fasted overnight before blood collection but had free access to water. Blood samples were taken from a peripheral vein. Standard haematology and clinical chemistry analysis were performed once during pretest and at the end of the treatment period. Blood samples were collected from each animal at the same intervals as described for the clinical chemistry investigations. The serum samples were deep-frozen (approximately −80° C.) until analyses for hormone determination."}, "[2]": {"test_system": "gene expression in organs", "experiment": "Blind monkey trial of three peptides: gene expression profiling of organs on Affymetrix U95 chips", "type": "in vivo, cynomolgus monkeys", "details": "100 μg/animal/day sc, two weeks; listed as Peptide 1"}}, "note": "Several values for one entry are separate records, joined by “and”; a condition that tells them apart may be missing. Equal entries are not always repeated. Entries after “also recorded” stand apart in the source; their conditions may differ.", "data": [{"substance": "Leu8, Asp10, Lysll, A1a16, G1n18, Thr33, A1a34 human PTH 1-34 [PTS893, Leu8, Asp10, Lysll, A1a16, G1n18, Thr33, A1a34 human PTH 1-34 [hPTH(1-34)]]", "values": [{"measurement": "Haematology L", "setting": "[1]; females, d7", "value": "6.29 pg/ml and 5.87 pg/ml"}, {"measurement": "Haematology M", "setting": "[1]; females, d7", "value": 0.44, "unit": "nmol/l"}, {"measurement": "Haematology MCH", "setting": "[1]; females, d7", "value": "18.9 ng/ml and 19.0 ng/ml"}, {"measurement": "Haematology N", "setting": "[1]; females, d7", "value": "10.8 nmol/l and 5.49 nmol/l"}, {"measurement": "Haematology PCV", "setting": "[1]; females, d7", "value": "0.41 mU/l and 0.43 mU/l"}, {"measurement": "Haematology PLAT", "setting": "[1]; females, d7", "value": "525 nmol/l and 382 nmol/l"}, {"measurement": "Haematology RBC", "setting": "[1]; females, d7", "value": "6.2 nmol/l and 6.4 nmol/l"}, {"measurement": "Haematology E", "setting": "[1]; females, d13", "value": "0.21 mUI/l and 0.29 mUI/l"}, {"measurement": "Haematology HB", "setting": "[1]; females, d13", "value": 11.3}, {"measurement": "Haematology L", "setting": "[1]; females, d13", "value": "5.81 pg/ml and 5.21 pg/ml"}, {"measurement": "Haematology MCH", "setting": "[1]; females, d13", "value": "19.3 ng/ml and 19.2 ng/ml"}, {"measurement": "Haematology MCHC", "setting": "[1]; females, d13", "value": "28.6 pg/ml and 29.2 pg/ml"}, {"measurement": "Haematology N", "setting": "[1]; females, d13", "value": "6.36 nmol/l and 4.18 nmol/l"}, {"measurement": "Haematology PCV", "setting": "[1]; females, d13", "value": "0.40 mU/l and 0.39 mU/l"}, {"measurement": "Haematology PLAT", "setting": "[1]; females, d13", "value": "496 nmol/l and 309 nmol/l"}, {"measurement": "Haematology RBC", "setting": "[1]; females, d13", "value": 5.9, "unit": "nmol/l"}, {"measurement": "Haematology L", "setting": "[1]; females, d−8 (before dosing)", "value": "3.92 pg/ml and 4.40 pg/ml"}, {"measurement": "Haematology M", "setting": "[1]; females, d−8 (before dosing)", "value": "0.80 nmol/l and 0.54 nmol/l"}, {"measurement": "Haematology MCH", "setting": "[1]; females, d−8 (before dosing)", "value": 19.3, "unit": "ng/ml"}, {"measurement": "Haematology MCHC", "setting": "[1]; females, d−8 (before dosing)", "value": "30.6 pg/ml and 30.2 pg/ml"}, {"measurement": "Haematology N", "setting": "[1]; females, d−8 (before dosing)", "value": "5.34 nmol/l and 9.05 nmol/l"}, {"measurement": "Haematology PCV", "setting": "[1]; females, d−8 (before dosing)", "value": "0.44 mU/l and 0.43 mU/l"}, {"measurement": "Haematology RBC", "setting": "[1]; females, d−8 (before dosing)", "value": "6.9 nmol/l and 6.7 nmol/l"}, {"measurement": "Haematology B", "setting": "[1]; males, d7", "value": "0.02 G/l and 0.03 G/l"}, {"measurement": "Haematology HB", "setting": "[1]; males, d7", "value": "11.3 g/dl and 11.9 g/dl"}, {"measurement": "Haematology L", "setting": "[1]; males, d7", "value": "5.91 G/l and 5.30 G/l"}, {"measurement": "Haematology MCH", "setting": "[1]; males, d7", "value": "17.7 pg and 20.2 pg"}, {"measurement": "Haematology MCHC", "setting": "[1]; males, d7", "value": "29.3 g/dl and 30.2 g/dl"}, {"measurement": "Haematology MCV", "setting": "[1]; males, d7", "value": "60 fl and 67 fl"}, {"measurement": "Haematology PCV", "setting": "[1]; males, d7", "value": "0.38 l/l and 0.40 l/l"}, {"measurement": "Haematology PLAT", "setting": "[1]; males, d7", "value": "456 G/l and 589 G/l"}, {"measurement": "Haematology RBC", "setting": "[1]; males, d7", "value": "6.4 T/l and 5.9 T/l"}, {"measurement": "Haematology WBC", "setting": "[1]; males, d7", "value": "8.4 G/l and 15.0 G/l"}, {"measurement": "Haematology B", "setting": "[1]; males, d13", "value": "0.04 G/l and 0.03 G/l"}, {"measurement": "Haematology HB", "setting": "[1]; males, d13", "value": "11.7 g/dl and 11.8 g/dl"}, {"measurement": "Haematology L", "setting": "[1]; males, d13", "value": "5.37 G/l and 4.86 G/l"}, {"measurement": "Haematology M", "setting": "[1]; males, d13", "value": "0.27 G/l and 0.46 G/l"}, {"measurement": "Haematology MCH", "setting": "[1]; males, d13", "value": "17.3 pg and 20.3 pg"}, {"measurement": "Haematology MCHC", "setting": "[1]; males, d13", "value": "27.5 g/dl and 29.2 g/dl"}, {"measurement": "Haematology MCV", "setting": "[1]; males, d13", "value": "63 fl and 70 fl"}, {"measurement": "Haematology PCV", "setting": "[1]; males, d13", "value": "0.43 l/l and 0.41 l/l"}, {"measurement": "Haematology PLAT", "setting": "[1]; males, d13", "value": "330 G/l and 452 G/l"}, {"measurement": "Haematology RBC", "setting": "[1]; males, d13", "value": "6.8 T/l and 5.8 T/l"}, {"measurement": "Haematology WBC", "setting": "[1]; males, d13", "value": "8.8 G/l and 11.9 G/l"}, {"measurement": "Haematology HB", "setting": "[1]; males, d−6 (before dosing)", "value": "13.6 g/dl and 13.2 g/dl"}, {"measurement": "Haematology L", "setting": "[1]; males, d−6 (before dosing)", "value": "5.07 G/l and 3.99 G/l"}, {"measurement": "Haematology MCH", "setting": "[1]; males, d−6 (before dosing)", "value": "18.0 pg and 20.4 pg"}, {"measurement": "Haematology MCHC", "setting": "[1]; males, d−6 (before dosing)", "value": "31.5 g/dl and 33.1 g/dl"}, {"measurement": "Haematology MCV", "setting": "[1]; males, d−6 (before dosing)", "value": "57 fl and 62 fl"}, {"measurement": "Haematology N", "setting": "[1]; males, d−6 (before dosing)", "value": "4.45 G/l and 4.80 G/l"}, {"measurement": "Haematology PCV", "setting": "[1]; males, d−6 (before dosing)", "value": "0.43 l/l and 0.40 l/l"}, {"measurement": "Haematology PLAT", "setting": "[1]; males, d−6 (before dosing)", "value": "325 G/l and 459 G/l"}, {"measurement": "Haematology RBC", "setting": "[1]; males, d−6 (before dosing)", "value": "7.6 T/l and 6.5 T/l"}, {"measurement": "Haematology WBC", "setting": "[1]; males, d−6 (before dosing)", "value": "10.4 G/l and 9.1 G/l"}]}, {"substance": "cyclo[4-(NH2—C2H4—NH—CO—O)Pro-Phg-DTrp-Lys-Tyr(4-Bzl)-Phe] [SOM230]", "values": [{"measurement": "Conclusions of the in vivo Profiling by the Data Mining Team: Function/Pathway", "setting": "[2]", "value": "Anti-growth activity; also recorded: GI tract/pancreatic; also recorded: Immunosuppression"}, {"measurement": "Findings by the Data Mining Team: Adrenals (gene with direction)", "setting": "[2]", "value": "IGF2−; also recorded: somatostatin−; also recorded: insulin receptor+; also recorded: urocortin+"}, {"measurement": "Findings by the Data Mining Team: Bone marrow (gene with direction)", "setting": "[2]", "value": "VIP− and peptide YY− and cyclin− and GAPDH−"}, {"measurement": "Findings by the Data Mining Team: Kidney (gene with direction)", "setting": "[2]", "value": "Solute carrier protein 9++; also recorded: urocortin+; also recorded: IGF2−; also recorded: beta 2−; also recorded: THRα+"}, {"measurement": "Findings by the Data Mining Team: Liver (gene with direction)", "setting": "[2]", "value": "IGF2− and NMDA receptor+ and glutamate dehydrogenase+ and VIP and insulin− induced protein1 and STR5"}, {"measurement": "Findings by the Data Mining Team: Pituitary (gene with direction)", "setting": "[2]", "value": "IGFR1− and GH1/2− and CSH(L)− and TSH− and CHRH2− and synthase++ and Immunoglobulin−−"}, {"measurement": "Findings by the Data Mining Team: Spleen (gene with direction)", "setting": "[2]", "value": "IGF2− and IGBP6− and insulin receptor− and urocortin+ and Ig− and ribosomal protein −− and Nk cells+"}, {"measurement": "Findings by the Data Mining Team: Stomach (gene with direction)", "setting": "[2]", "value": "Gastrin+; also recorded: hypocretin+; also recorded: glutamate receptor+; also recorded: GABAB−"}, {"measurement": "Findings by the Data Mining Team: Thymus (gene with direction)", "setting": "[2]", "value": "IGFBP1+ and MHC classII− and Ig− and FKBP12− and CD4− and defensin alpha1+,"}, {"measurement": "Findings by the Data Mining Team: Thyroid (gene with direction)", "setting": "[2]", "value": "NPY− and cyclins−− and ATPase calcium channel+ and somatostatin receptor 4−,"}]}]}
